Data as given in the NIST ThermoML archive (doi:10.1016/j.fluid.2017.11.013).
Where “and” joins values, the source holds several entries; their conditions need not be identical. Identical values can stand only once. Numbers after ± are expanded uncertainties.

Conditions: Coaxial cylinder method

C=C [ethene]
Conditions | thermal conductivity
301.6 K, 7230 kPa, Fluid (supercritical or subcritical phases) | 0.06174 ± 0.0024 W/m/K
301.6 K, 7400 kPa, Fluid (supercritical or subcritical phases) | 0.06342 ± 0.0025 W/m/K
301.6 K, 7430 kPa, Fluid (supercritical or subcritical phases) | 0.06371 ± 0.0025 W/m/K
301.6 K, 7440 kPa, Fluid (supercritical or subcritical phases) | 0.06376 ± 0.0025 W/m/K
301.6 K, 7460 kPa, Fluid (supercritical or subcritical phases) | 0.06392 ± 0.0025 W/m/K
301.6 K, 7480 kPa, Fluid (supercritical or subcritical phases) | 0.06395 ± 0.0025 W/m/K
301.6 K, 7570 kPa, Fluid (supercritical or subcritical phases) | 0.06425 ± 0.0025 W/m/K
301.6 K, 7680 kPa, Fluid (supercritical or subcritical phases) | 0.06462 ± 0.0025 W/m/K
301.6 K, 7720 kPa, Fluid (supercritical or subcritical phases) | 0.06482 ± 0.0025 W/m/K
301.6 K, 7760 kPa, Fluid (supercritical or subcritical phases) | 0.06461 ± 0.0025 W/m/K
301.6 K, 7800 kPa, Fluid (supercritical or subcritical phases) | 0.06479 ± 0.0025 W/m/K
301.6 K, 7820 kPa, Fluid (supercritical or subcritical phases) | 0.06483 ± 0.0025 W/m/K
301.6 K, 7980 kPa, Fluid (supercritical or subcritical phases) | 0.06482 ± 0.0025 W/m/K
301.6 K, 8360 kPa, Fluid (supercritical or subcritical phases) | 0.0649 ± 0.0025 W/m/K
301.6 K, 9100 kPa, Fluid (supercritical or subcritical phases) | 0.0668 ± 0.0026 W/m/K
301.6 K, 10390 kPa, Fluid (supercritical or subcritical phases) | 0.0716 ± 0.0027 W/m/K
301.6 K, 12800 kPa, Fluid (supercritical or subcritical phases) | 0.07701 ± 0.0029 W/m/K
301.6 K, 14950 kPa, Fluid (supercritical or subcritical phases) | 0.08151 ± 0.0031 W/m/K
301.6 K, 18120 kPa, Fluid (supercritical or subcritical phases) | 0.08743 ± 0.0033 W/m/K
301.6 K, 20700 kPa, Fluid (supercritical or subcritical phases) | 0.09068 ± 0.0034 W/m/K
301.6 K, 20800 kPa, Fluid (supercritical or subcritical phases) | 0.09075 ± 0.0034 W/m/K
301.6 K, 25600 kPa, Fluid (supercritical or subcritical phases) | 0.09706 ± 0.0036 W/m/K
301.6 K, 31800 kPa, Fluid (supercritical or subcritical phases) | 0.1039 ± 0.0038 W/m/K
301.6 K, 40300 kPa, Fluid (supercritical or subcritical phases) | 0.1138 ± 0.0041 W/m/K
301.6 K, 45200 kPa, Fluid (supercritical or subcritical phases) | 0.1185 ± 0.0043 W/m/K
301.6 K, 50400 kPa, Fluid (supercritical or subcritical phases) | 0.1236 ± 0.0044 W/m/K
301.6 K, 55500 kPa, Fluid (supercritical or subcritical phases) | 0.1283 ± 0.0046 W/m/K
301.6 K, 59300 kPa, Fluid (supercritical or subcritical phases) | 0.132 ± 0.0047 W/m/K
301.6 K, 61000 kPa, Fluid (supercritical or subcritical phases) | 0.1337 ± 0.0048 W/m/K and 0.1336 ± 0.0048 W/m/K
301.6 K, 62000 kPa, Fluid (supercritical or subcritical phases) | 0.1342 ± 0.0048 W/m/K
301.6 K, 65000 kPa, Fluid (supercritical or subcritical phases) | 0.1366 ± 0.0049 W/m/K
301.6 K, 65300 kPa, Fluid (supercritical or subcritical phases) | 0.1372 ± 0.0049 W/m/K
301.6 K, 65700 kPa, Fluid (supercritical or subcritical phases) | 0.1378 ± 0.0049 W/m/K
301.6 K, 66000 kPa, Fluid (supercritical or subcritical phases) | 0.1378 ± 0.0049 W/m/K
301.6 K, 70000 kPa, Fluid (supercritical or subcritical phases) | 0.1414 ± 0.005 W/m/K
302.21 K, 101 kPa, Gas | 0.02112 ± 0.00077 W/m/K
303.1 K, 101 kPa, Gas | 0.0207 ± 0.00076 W/m/K
425 K, 101 kPa, Gas | 0.0381 ± 0.0013 W/m/K
425.46 K, 500 kPa, Fluid (supercritical or subcritical phases) | 0.03821 ± 0.0017 W/m/K
425.46 K, 1000 kPa, Fluid (supercritical or subcritical phases) | 0.03832 ± 0.0017 W/m/K
425.46 K, 2500 kPa, Fluid (supercritical or subcritical phases) | 0.03937 ± 0.0017 W/m/K
425.46 K, 5000 kPa, Fluid (supercritical or subcritical phases) | 0.04226 ± 0.0018 W/m/K
425.46 K, 7300 kPa, Fluid (supercritical or subcritical phases) | 0.04435 ± 0.0019 W/m/K
425.46 K, 10000 kPa, Fluid (supercritical or subcritical phases) | 0.04845 ± 0.002 W/m/K
425.46 K, 12200 kPa, Fluid (supercritical or subcritical phases) | 0.0528 ± 0.0022 W/m/K
425.46 K, 14600 kPa, Fluid (supercritical or subcritical phases) | 0.05769 ± 0.0023 W/m/K and 0.05771 ± 0.0023 W/m/K
425.46 K, 14800 kPa, Fluid (supercritical or subcritical phases) | 0.05814 ± 0.0023 W/m/K
425.46 K, 20000 kPa, Fluid (supercritical or subcritical phases) | 0.06783 ± 0.0026 W/m/K
425.46 K, 24900 kPa, Fluid (supercritical or subcritical phases) | 0.07364 ± 0.0028 W/m/K
425.46 K, 30000 kPa, Fluid (supercritical or subcritical phases) | 0.07726 ± 0.0029 W/m/K
425.46 K, 40600 kPa, Fluid (supercritical or subcritical phases) | 0.08392 ± 0.0032 W/m/K
425.46 K, 50500 kPa, Fluid (supercritical or subcritical phases) | 0.0908 ± 0.0034 W/m/K
425.46 K, 60700 kPa, Fluid (supercritical or subcritical phases) | 0.09875 ± 0.0036 W/m/K
425.46 K, 70300 kPa, Fluid (supercritical or subcritical phases) | 0.1051 ± 0.0038 W/m/K
425.46 K, 71800 kPa, Fluid (supercritical or subcritical phases) | 0.1068 ± 0.0039 W/m/K
425.46 K, 73700 kPa, Fluid (supercritical or subcritical phases) | 0.109 ± 0.004 W/m/K
425.46 K, 75000 kPa, Fluid (supercritical or subcritical phases) | 0.1098 ± 0.004 W/m/K
425.46 K, 79000 kPa, Fluid (supercritical or subcritical phases) | 0.1119 ± 0.0041 W/m/K
425.46 K, 81900 kPa, Fluid (supercritical or subcritical phases) | 0.1144 ± 0.0042 W/m/K
425.46 K, 89500 kPa, Fluid (supercritical or subcritical phases) | 0.1184 ± 0.0043 W/m/K
425.46 K, 93500 kPa, Fluid (supercritical or subcritical phases) | 0.1214 ± 0.0044 W/m/K
425.46 K, 97000 kPa, Fluid (supercritical or subcritical phases) | 0.1232 ± 0.0044 W/m/K
425.46 K, 100000 kPa, Fluid (supercritical or subcritical phases) | 0.1251 ± 0.0045 W/m/K
425.62 K, 101 kPa, Gas | 0.03809 ± 0.0013 W/m/K
